Experiments:
OSGPR114 [1] = biological target: T1, OSGPR114 (Homo sapiens, UniProt Q9H1C0); experiment: Yeast Fus1p-LacZ β-galactosidase reporter assay, OSGPR114-transformed yeast; assay type: cell-based; conditions: for effect on fluorescence (β-galactosidase reporter): yeast transformed with OSGPR114
T1 construct: expressed in transfected cells; host or cells: engineered yeast (GPA1 replaced by G-alpha chimeras, STE3 deleted; Fus1p-LacZ reporters)
Source text: (§1) The yeast cell-based reporter assays have previously been described in the literature (e.g. see Miret J. J., et. al. (2002) J. Biol. Chem. 277:6881-6887; Campbell R. M., et. al. (1999) Bioorg Med. Chem. Lett. 9:2413-2418; King K., et. al. (1990) Science. 250:121-123); WO 99/14344; WO 00/12704; and U.S. Pat. No. 6,100,042). Briefly, yeast cells have been engineered such that the endogenous yeast G-alpha (GPA1) has been deleted and replaced with G-protein chimeras constructed using multiple techniques. Additionally the endogenous yeast alpha-cell GPCR, STE3 has been deleted to allow for a […] expression of a mammalian GPCR of choice. In the yeast, elements of the pheromone signaling transduction pathway, which are conserved in eukaryotic cells (for example, the mitogen-activated protein kinase pathway), drive the expression of Fus1. By placing β-galactosidase (LacZ) under the control of the Fus1 promoter (Fus1p), a system has been developed whereby receptor activation leads to an enzymatic read-out. Different yeast strains (e.g. FIG. 6) denote the presence of different G-alpha chimeras (see “yeast reporter assays” in Results section below for definitions).
(§2) Yeast cells are transformed by an adaptation of the Lithium acetate method described by Agatep et.al. (Agatep, R., et. al. (1998) Transformation of Saccharomyces cerevisiae by the lithium acetate/single-stranded carrier DNA/polyethylene glycol (LiAc/ss-DNA/PEG) protocol. Technical Tips Online, Trends Journals, Elsevier). Briefly, yeast cells are grown overnight on yeast tryptone plates (YT). Carrier single-stranded DNA (10 μg), 2 μg of each of two Fus1p-LacZ reporter plasmids (one with URA3 selection marker and one with TRP1), 2 μg of OSGPR114 or OSGPR78 in yeast expression vector (2p origin of replication) and a lithium acetate/polyethylene glycol/TE buffer is pipetted into an Epindorf tube. The yeast expression plasmid containing the receptor/no receptor control has a LEU2 marker. Yeast cells are inoculated into this mixture and the reaction proceeds at 30° C. for 60 minutes. The yeast cells are then heat-shocked at 42° C. for 15 minutes. The cells are then washed and spread on selection plates. The selection plates are synthetic defined yeast media minus LEU, URA and TRP (SD-LUT). After incubating at 30° C. for 2-3 days, colonies that grow on the selection plates are then tested in the LacZ assay.
(§3) In order to perform fluorometric enzyme assays for β-galactosidase, yeast cells were grown overnight in liquid SD-LUT media to an unsaturated concentration (i.e. the cells are still dividing and have not yet reached stationary phase). They are diluted in fresh media to an optimal assay concentration and 90 μL of yeast cells were added to 96-well black polystyrene plates (Costar). Compounds, dissolved in ethanol and diluted in a 1% BSA solution to 10× concentration, were added to the plates and the yeast are placed at 30° C. for 4 h. After 4 h, the substrate for the β-galactosidase is added to each well: The substrate may yield a fluorescent or calorimetric read-out upon the activity of the β-galactosidase. In these experiments, Fluorescein di(β-D-galactopyranoside) was used (FDG), a substrate for the enzyme that releases fluorescein, allowing a fluorometric read-out. 20 μL of 500 μM FDG was used. After incubation of the cells with the substrate for 30-60 mins, 20 μL of 1 M sodium carbonate is added to terminate the reaction and enhance the fluorescent signal. The plates were then read in a fluorometer at 485/535 nm. As an alternate read-out system, the yeast are also engineered with a Fus1p-HIS gene which means that activation of the receptor can also be measured through the growth of the yeast in a […] media.

OSGPR78 = biological target: T2, OSGPR78 (Homo sapiens, UniProt P43657, I33V); experiment: Yeast Fus1p-LacZ β-galactosidase reporter assay, OSGPR78-transformed yeast; assay type: cell-based; conditions: yeast transformed with OSGPR78
T2 construct: expressed in transfected cells; host or cells: engineered yeast (GPA1 replaced by G-alpha chimeras, STE3 deleted; Fus1p-LacZ reporters)
T2 sequence (P43657 1-344 I33V): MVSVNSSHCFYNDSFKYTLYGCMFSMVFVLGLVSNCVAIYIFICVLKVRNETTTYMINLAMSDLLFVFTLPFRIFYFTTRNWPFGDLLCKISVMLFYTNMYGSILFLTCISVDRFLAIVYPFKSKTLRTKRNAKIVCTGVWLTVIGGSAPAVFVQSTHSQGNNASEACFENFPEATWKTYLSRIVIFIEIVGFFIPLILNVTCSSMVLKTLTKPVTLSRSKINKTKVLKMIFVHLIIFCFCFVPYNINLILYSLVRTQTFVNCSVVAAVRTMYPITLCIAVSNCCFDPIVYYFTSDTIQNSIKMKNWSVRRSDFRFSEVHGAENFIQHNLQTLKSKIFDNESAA
Source text: as §1, §2, §3

[2] = system: vector transformed yeast cells; experiment: Yeast Fus1p-LacZ reporter assay, vector control (no receptor); assay type: cell-based; conditions: vector controls, same yeast strains
Source text: as §1, §2
as §3, with “Compounds, dissolved in ethanol and diluted in a 1% BSA solution to 10× concentration, were added to the plates and the yeast are placed at 30° C. for 4 h.” left out, “20 μL of 500 μM FDG was used. After incubation of the cells with the substrate for 30-60 mins, 20 μL of 1 M sodium carbonate is added to terminate the reaction and enhance the fluorescent signal.” left out

OSGPR114 [3] = biological target: T1, OSGPR114; experiment: [35S]-GTPγS binding, CHO-OSGPR114 membranes; assay type: biochemical; conditions: CHO-OSGPR114 versus CHO membranes
Protocol: For example, in one method employed herein, membranes from untransfected CHO cells as well as OSGPR114 stable clones were prepared using the method described by Griffin et al (1998). Membranes were homogenized in buffer containing 50 mM Tris, 3 mM MgCl2, 100 mM NaCl, 1 mM EDTA, 1 uM GDP, 0.1% fatty acid free BSA, 0.01% Saponin, pH 7.4. Assays were carried out in a reaction mixture containing 50 mL of membrane suspension (5 mg/well), 50 mL of [^35S]-GTPgS binding (final concentration 0.5 nM: 50 mL aliquot counted to determine precise concentration employed) and either 50 mL of assay buffer, 50 mL of unlabeled GTPgS (defining nonspecific binding:final concentration is 10 mM) or 50 mL of each concentration of LPA. Incubations were carried out in triplicate for 60 minutes at 37° C. Reactions were terminated by rapid filtration over GF/B filters presoaked in ice cold wash buffer for 90 minutes. The filters were then washed 6 times with 0.3 mL of ice cold wash buffer (50 mM Tris, 5 mM MgCl2, pH 7.4). The filters were dried, covered with Microscint-20, dark adapted for 5 minutes, and counted on a 2 minute [^35S] protocol on a Packard TopCount LSC.

endogenous CHO receptor = experiment: [35S]-GTPγS binding, parental CHO membranes; assay type: biochemical, hamster; conditions: 1 nM to 300 nM applied
Protocol: For example, in one method employed herein, membranes from untransfected CHO cells as well as OSGPR114 stable clones were prepared using the method described by Griffin et al (1998). Membranes were homogenized in buffer containing 50 mM Tris, 3 mM MgCl2, 100 mM NaCl, 1 mM EDTA, 1 uM GDP, 0.1% fatty acid free BSA, 0.01% Saponin, pH 7.4. Assays were carried out in a reaction mixture containing […], 50 mL of [^35S]-GTPgS binding (final concentration 0.5 nM: 50 mL aliquot counted to determine precise concentration employed) and either 50 mL of assay buffer, 50 mL of unlabeled GTPgS (defining nonspecific binding:final concentration is […]) or 50 mL of each concentration of LPA. Incubations were carried out in triplicate for 60 minutes at 37° C. Reactions were terminated by rapid filtration over GF/B filters presoaked in ice cold wash buffer for 90 minutes. The filters were then washed 6 times with 0.3 mL of ice cold wash buffer (50 mM Tris, 5 mM MgCl2, pH 7.4). The filters were dried, covered with Microscint-20, dark adapted for 5 minutes, and counted on a 2 minute [^35S] protocol on a Packard TopCount LSC.

OSGPR114 [4] = biological target: T1, OSGPR114; experiment: FLIPR intracellular calcium assay, CHO-OSGPR114 cells; assay type: cell-based; conditions: co-addition with LPA
Protocol: For example, in one method employed herein, CHO and CHO-114 cells were seeded at a concentration of 50K cells/well in […] growth media in clear, flat-bottom 96-well black assay plates and incubated overnight at 37 C. The growth media is aspirated from the cells and a dye solution ([…]) added to each well. The dye solution consists of 2 mM probenecid, 2 mM HBSS, […] in a growth media minus antibiotics solution. The cells are loaded with the dye for 1 h at 37 C before aspiration and rinsing with wash buffer (20 mM HBSS+2 mM Probenecid). Compound plates are then prepared with 4× compound/control. 150 ul of wash buffer is added to each well. Once the FLIPR is fully calibrated, compound is added to the plate and the release of calcium measured using 0.4 exposure length and a laser set at 0.3W.

T1 sequence (Q9H1C0 whole entry): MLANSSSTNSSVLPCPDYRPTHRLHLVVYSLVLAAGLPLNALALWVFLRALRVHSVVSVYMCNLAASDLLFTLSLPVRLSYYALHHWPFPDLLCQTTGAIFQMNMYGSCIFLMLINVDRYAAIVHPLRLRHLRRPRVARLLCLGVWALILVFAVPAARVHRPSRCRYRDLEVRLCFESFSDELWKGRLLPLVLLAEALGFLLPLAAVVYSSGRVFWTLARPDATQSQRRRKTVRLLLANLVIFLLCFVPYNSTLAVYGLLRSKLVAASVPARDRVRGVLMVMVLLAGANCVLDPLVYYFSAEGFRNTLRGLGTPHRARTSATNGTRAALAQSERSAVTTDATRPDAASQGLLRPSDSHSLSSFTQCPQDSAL

Q: With `Nc1ncnc2c1ncn2[C@@H]1O[C@H](COP(=O)(O)OP(=O)(O)O)[C@@H](O)[C@H]1O` [ADP] as the compound, how does the “effect on fluorescence (β-galactosidase reporter)” value (“effect on fluorescence” below) (OSGPR114 [1]) read?
A: no effect

Q: And the “effect on fluorescence” value (OSGPR78)?
A: no effect

Q: `Nc1ncnc2c1ncn2[C@@H]1O[C@H](COP(=O)(O)OP(=O)(O)OP(=O)(O)O)[C@@H](O)[C@H]1O` [ATP] was tested. Which “effect on fluorescence” value (OSGPR114 [1]) did it give?
A: no effect

Q: What about the “effect on fluorescence” value (OSGPR78) of the same compound?
A: no effect

Q: Which “response in yeast G-alpha chimera strains” value (OSGPR114 [1]; chimeras of Galpha q (20156) and Galphas (20202)) does the source give for `CCCCCCCCC=CCCCCCCCC(=O)OCC(O)COP(=O)(O)O` (centres unmarked) [Oleoyl LPA, oleoyl lysophosphatidic acid] here?
A: could produce a response

Q: And the “effect on fluorescence” value (OSGPR114 [1])?
A: increase in fluorescence

Q: And the “effect on fluorescence” value (OSGPR78)?
A: increase in fluorescence

Q: What about the “response in vector transformed yeast cells” value [2] of the same compound?
A: not in vector transformed cells

Q: And the “response in vector transformed yeast cells” value ([2]; listed as oleoyl LPA)?
A: did not respond

Q: What about the “Emax, GTPγS binding” value (OSGPR114 [3]) of the same compound?
A: comparable Emax values

Q: What about the EC50 (endogenous CHO receptor) of the same compound?
A: 768 nM

Q: With `CCCCCCCCCCCCCC(=O)OC[C@@H](O)COP(=O)(O)O` [myristoyl LPA, myristoyl lysophosphatidic acid] as the compound, how does the “effect on fluorescence” value (OSGPR114 [1]) read?
A: increase in fluorescence

Q: And the “effect on fluorescence” value (OSGPR78)?
A: increase in fluorescence

Q: And the “response in vector transformed yeast cells” value [2]?
A: not in vector transformed cells

Q: How did the “effect on fluorescence” value (OSGPR114 [1]) turn out when `CCCCCCCCCCCCCCCC(=O)OC[C@@H](O)COP(=O)(O)O` [palmitoyl LPA, palmitoyl lysophosphatidic acid] was run?
A: increase in fluorescence

Q: And the “effect on fluorescence” value (OSGPR78)?
A: increase in fluorescence

Q: What about the “response in vector transformed yeast cells” value [2] of the same compound?
A: not in vector transformed cells

Q: Which results are given for `CCCCCCCCCCCCCCCCCC(=O)OC[C@@H](O)COP(=O)(O)O` [stearoyl LPA, stearoyl lysophosphatidic acid]?
A: effect on fluorescence (β-galactosidase reporter) (OSGPR114 [1]): increase in fluorescence; effect on fluorescence (β-galactosidase reporter) (OSGPR78): increase in fluorescence; response in vector transformed yeast cells [2]: not in vector transformed cells

Q: With pertussis toxin as the compound, how does the “effect of co-addition on LPA calcium response” value (OSGPR114 [4]) read?
A: completely abolished this effect

Q: How did the “effect on fluorescence” value (OSGPR114 [1]) turn out when platelet-activating factor [PAF] was run?
A: no effect

Q: What about the “effect on fluorescence” value (OSGPR78) of the same compound?
A: no effect
